Source: patent US20230047788A1, “COMPOSITIONS COMPRISING 5-CHOLESTEN-3, 25-DIOL, 3-SULFATE (25HC3S) OR PHARMACEUTICALLY ACCEPTABLE SALT THEREOF AND AT LEAST ONE CYCLIC OLIGOSACCHARIDE” (Virginia Commonwealth University, priority 2016, published 2023)

Assay: Effect of phosphate and borate buffers on chemical stability (% remaining, impurity profile), osmolality, pH and appearance of 25HC3S 30 mg/mL in 250 mg/mL HPBCD at 80°C and 60°C
Type: physicochemical
Procedure: A total of six 25HC3S formulations at 30 mg/mL in 250 mg/mL of 2-hydroxypropyl beta cyclodextrin (HPBCD) containing 10, 20, 50 and 100 mM phosphate buffers at pH 7.5 to 8.1 and 10 and 50 mM borate buffers at pH 9.4 were prepared for the stability study. The chemical stability (measured as % remaining of 25HC3S) and physical stability (osmolality, pH and appearance) of the formulations were monitored under accelerated conditions for up to 7 days at 80° C. and up to 29 days at 60° C.
Two stock solutions of phosphate buffer at 100 and 200 mM at pH 7.4 and 7.3, respectively and one borate buffer at 100 mM at pH 9.3 were prepared (Tables 22A and 22B) and used for 250 mg/mL HPBCD vehicles preparation (Table 23).
Approximately 1200 mg each of 25HC3S was weighed into 40 mL volumetric flasks and diluted to volume with the six HPBCD vehicles containing 10-100 mM phosphate buffers or 10 and 50 mM borate buffers, respectively (Table 24). The final concentration of 25HC3S was 30 mg/mL (wt/volume, without adjusting for API purity). Aliquots of 2 mL of each formulation were filled into 2 mL glass vials, stoppered and sealed for stability sample set-up at 60° C. and 80° C. to study the effect of phosphate buffer (pH 7.5-8.1) and borate buffer (pH 9.4) at various buffer concentrations on the stability of the HPBCD formulations (Table 26).
A 0.5 mL of sample solution was transferred to a 25 mL volumetric flask and QS'ed with methanol/water=95/5 for 25HC3S concentration determination by HPLC. The % remaining of 25HC3S was calculated as follows: […]

[1] = 60° C., day 0, Phosphate 100 mM
[2] = 60° C., day 29, Phosphate 10 mM
[3] = 60° C., day 29, Phosphate 20 mM
[4] = 60° C., day 29, Phosphate 50 mM
[5] = 60° C., day 29, Phosphate 100 mM

C[C@H](CCCC(C)(C)O)[C@H]1CC[C@H]2[C@@H]3CC=C4C[C@@H](OS(=O)(=O)[O-])CC[C@]4(C)[C@H]3CC[C@]12C.[Na+] [25HC3S, 5-cholesten-3, 25-diol, 3-sulfate]
pH (60° C., day 0, Borate 50 mM): 9.40 | 25HC3S (60° C., day 0, Phosphate 10 mM): 28.45 mg/mL | % Peak Area 25-Hydroxy Cholesterol at RRT = 3.67 (60° C., day 0, Phosphate 10 mM): 0.0 % Peak Area | % Peak Area 25HC3S (60° C., day 0, Phosphate 10 mM): 99.8 % Peak Area | % Peak Area Major Thermal Degradant at RRT = 2.64 (60° C., day 0, Phosphate 10 mM): 0.3 % Peak Area | % Remaining of 25HC3S (60° C., day 0, Phosphate 10 mM): 100.0% | Osmolality (60° C., day 0, Phosphate 10 mM): 273 mmol/kg | pH (60° C., day 0, Phosphate 10 mM): 8.09 | 25HC3S (60° C., day 0, Phosphate 20 mM): 28.63 mg/mL | % Peak Area 25-Hydroxy Cholesterol at RRT = 3.67 (60° C., day 0, Phosphate 20 mM): 0.0 % Peak Area | % Peak Area 25HC3S (60° C., day 0, Phosphate 20 mM): 99.7 % Peak Area | % Peak Area Major Thermal Degradant at RRT = 2.64 (60° C., day 0, Phosphate 20 mM): 0.3 % Peak Area | % Remaining of 25HC3S (60° C., day 0, Phosphate 20 mM): 100.0% | Osmolality (60° C., day 0, Phosphate 20 mM): 311 mmol/kg | pH (60° C., day 0, Phosphate 20 mM): 7.81 | 25HC3S (60° C., day 0, Phosphate 50 mM): 28.50 mg/mL | % Peak Area 25-Hydroxy Cholesterol at RRT = 3.67 (60° C., day 0, Phosphate 50 mM): 0.0 % Peak Area | % Peak Area 25HC3S (60° C., day 0, Phosphate 50 mM): 99.7 % Peak Area | % Peak Area Major Thermal Degradant at RRT = 2.64 (60° C., day 0, Phosphate 50 mM): 0.3 % Peak Area | % Remaining of 25HC3S (60° C., day 0, Phosphate 50 mM): 100.0% | Osmolality (60° C., day 0, Phosphate 50 mM): 415 mmol/kg | pH (60° C., day 0, Phosphate 50 mM): 7.63 | 25HC3S [1]: 28.58 mg/mL | % Peak Area 25-Hydroxy Cholesterol at RRT = 3.67 [1]: 0.0 % Peak Area | % Peak Area 25HC3S [1]: 99.8 % Peak Area | % Peak Area Major Thermal Degradant at RRT = 2.64 [1]: 0.3 % Peak Area | % Remaining of 25HC3S [1]: 100.0% | Osmolality [1]: 573 mmol/kg | pH [1]: 7.53 | 25HC3S (60° C., day 29, Borate 10 mM): 26.55 mg/mL | % Peak Area 25-Hydroxy Cholesterol at RRT = 3.67 (60° C., day 29, Borate 10 mM): 1.3 % Peak Area | % Peak Area 25HC3S (60° C., day 29, Borate 10 mM): 98.5 % Peak Area | % Peak Area Major Thermal Degradant at RRT = 2.64 (60° C., day 29, Borate 10 mM): 0.3 % Peak Area | % Remaining of 25HC3S (60° C., day 29, Borate 10 mM): 92.9% | Osmolality (60° C., day 29, Borate 10 mM): 326 mmol/kg | pH (60° C., day 29, Borate 10 mM): 8.90 | 25HC3S (60° C., day 29, Borate 50 mM): 27.03 mg/mL | % Peak Area 25-Hydroxy Cholesterol at RRT = 3.67 (60° C., day 29, Borate 50 mM): 1.3 % Peak Area | % Peak Area 25HC3S (60° C., day 29, Borate 50 mM): 98.5 % Peak Area | % Peak Area Major Thermal Degradant at RRT = 2.64 (60° C., day 29, Borate 50 mM): 0.3 % Peak Area | % Remaining of 25HC3S (60° C., day 29, Borate 50 mM): 94.8% | Osmolality (60° C., day 29, Borate 50 mM): 541 mmol/kg | pH (60° C., day 29, Borate 50 mM): 9.19 | 25HC3S [2]: 26.65 mg/mL | % Peak Area 25-Hydroxy Cholesterol at RRT = 3.67 [2]: 1.4 % Peak Area | % Peak Area 25HC3S [2]: 98.3 % Peak Area | % Peak Area Major Thermal Degradant at RRT = 2.64 [2]: 0.3 % Peak Area | % Remaining of 25HC3S [2]: 93.7% | Osmolality [2]: 281 mmol/kg | pH [2]: 7.04 | 25HC3S [3]: 26.78 mg/mL | % Peak Area 25-Hydroxy Cholesterol at RRT = 3.67 [3]: 1.4 % Peak Area | % Peak Area 25HC3S [3]: 98.3 % Peak Area | % Peak Area Major Thermal Degradant at RRT = 2.64 [3]: 0.3 % Peak Area | % Remaining of 25HC3S [3]: 93.5% | Osmolality [3]: 322 mmol/kg | pH [3]: 7.17 | 25HC3S [4]: 26.63 mg/mL | % Peak Area 25-Hydroxy Cholesterol at RRT = 3.67 [4]: 1.4 % Peak Area | % Peak Area 25HC3S [4]: 98.3 % Peak Area | % Peak Area Major Thermal Degradant at RRT = 2.64 [4]: 0.3 % Peak Area | % Remaining of 25HC3S [4]: 93.4% | Osmolality [4]: 430 mmol/kg | pH [4]: 7.28 | 25HC3S [5]: 26.63 mg/mL | % Peak Area 25-Hydroxy Cholesterol at RRT = 3.67 [5]: 1.4 % Peak Area | % Peak Area 25HC3S [5]: 98.4 % Peak Area | % Peak Area Major Thermal Degradant at RRT = 2.64 [5]: 0.3 % Peak Area | % Remaining of 25HC3S [5]: 93.2% | Osmolality [5]: 592 mmol/kg | pH [5]: 7.28 | Appearance (60° C., days 0 and 29, Borate 10 and 50 mM, merged cell wrapped over r16-r18: Clear colorless solution): Clear | Appearance (60° C., days 0 and 29, Phosphate 10, 20, 50 and 100 mM, merged cell wrapped over r8-r10: Clear colorless solution): Clear | % Peak Area 25-Hydroxy Cholesterol at RRT = 3.67 (80° C., day 0, Borate 10 mM): 0.0 % Peak Area | % Peak Area 25HC3S (80° C., day 0, Borate 10 mM): 99.7 % Peak Area | % Peak Area Major Thermal Degradant at RRT = 2.64 (80° C., day 0, Borate 10 mM): 0.3 % Peak Area | % Peak Area 25-Hydroxy Cholesterol at RRT = 3.67 (80° C., day 0, Borate 50 mM): 0.0 % Peak Area | % Peak Area 25HC3S (80° C., day 0, Borate 50 mM): 99.9 % Peak Area | % Peak Area Major Thermal Degradant at RRT = 2.64 (80° C., day 0, Borate 50 mM): 0.2 % Peak Area | % Peak Area 25-Hydroxy Cholesterol at RRT = 3.67 (80° C., day 0, Phosphate 10 mM): 0.0 % Peak Area | % Peak Area 25HC3S (80° C., day 0, Phosphate 10 mM): 99.8 % Peak Area
